Among the data in PubChem BioAssay AID624167 (Sanford-Burnham Center for Chemical Genomics, 2012) are IC50 values, retold here.

Test [1] concerns the target PEG-3 (UniProt Q6IN02). In words: inhibition of PEG-3 promoter-driven reporter – cell-based, HeLa, luciferase, CREF/GAPDH counter-screen panel, dose response (AID 624167). To be noted: HeLa PEG-Prom luciferase reporter, overnight, CREF/GAPDH counter-screens, mean of runs.
Test [2] concerns PEG-3. The description is as above. To be noted: HeLa PEG-Prom luciferase reporter, overnight, CREF/GAPDH counter-screens.
[3] abbreviates: run 1, dose range 1, individual replicate IC50 per panel.
Where [4] appears, read: run 2, dose range 1, individual replicate IC50 per panel.

Activity calls are given as the source filed them.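 How the source made its calls: active means mean IC50 for reducing PEG3 promoter reporter signal at or below a set limit, with IC50 above the limit in both counter screens; inactive means the rest, including counter screen hits.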 Some results are limits rather than exact numbers.

PEG-3 (UniProt Q6IN02), sequence (Q6IN02 whole entry, looked up): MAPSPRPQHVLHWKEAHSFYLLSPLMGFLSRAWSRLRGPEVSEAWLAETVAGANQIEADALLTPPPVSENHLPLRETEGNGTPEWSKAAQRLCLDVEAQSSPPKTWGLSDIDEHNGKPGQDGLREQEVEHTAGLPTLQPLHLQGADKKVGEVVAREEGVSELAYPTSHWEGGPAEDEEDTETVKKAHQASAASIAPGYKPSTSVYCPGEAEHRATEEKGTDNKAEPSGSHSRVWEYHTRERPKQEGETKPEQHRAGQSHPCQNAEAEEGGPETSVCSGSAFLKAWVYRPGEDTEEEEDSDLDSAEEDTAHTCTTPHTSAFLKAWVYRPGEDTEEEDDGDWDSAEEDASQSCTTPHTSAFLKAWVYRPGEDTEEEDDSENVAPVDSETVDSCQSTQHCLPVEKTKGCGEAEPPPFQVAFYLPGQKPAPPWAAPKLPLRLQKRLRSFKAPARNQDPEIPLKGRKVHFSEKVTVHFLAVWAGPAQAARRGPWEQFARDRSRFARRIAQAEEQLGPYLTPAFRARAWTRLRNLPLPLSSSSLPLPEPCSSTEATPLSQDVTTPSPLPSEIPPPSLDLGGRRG

Take `Cc1cccc(C)c1-n1nnnc1C(c1ccccc1OC(F)(F)F)N1CCC(n2c(=O)[nH]c3ccccc32)CC1` (stereo unspecified): the IC50 in test [1] was 12.7 µM; in test [2] (setting [3]), 20.8 µM; in test [2] (setting [4]), 4.64 µM.
For the compound `CCOc1cc(CNCCCN2CCOCC2)ccc1OCC(=O)Nc1cccc2ccccc12`, the IC50 was 18.7 µM in test [1], 21.1 µM in test [2] (setting [3]) and 16.2 µM in test [2] (setting [4]).
In the same order, the values of `CCCOC(=O)c1cccc(Nc2nc(-c3cccnc3)nc3ccccc23)c1` are 12.3 µM, 12.6 µM and 11.9 µM.
In the same order, the values of `Nc1nc(CCl)nc(Nc2cccc3ccccc23)n1` are > 100 µM (inactive), more than 100 µM and more than 100 µM.
In the same order, the values of `Cc1ccc(NC(=O)Nc2ccnc(-c3cccnc3)n2)cc1` are > 100 µM (inactive), more than 100 µM and more than 100 µM.
In the case of `COc1ccc(-n2nnnc2C(C2CC2)N2CCC(n3c(=O)[nH]c4ccccc43)CC2)cc1` (stereo unspecified), the IC50 entry in test [1] is “inactive”. Moreover, the 50% inhibitory concentration (IC50) in test [2] (setting [3]) stood at 58.3 µM; in test [2] (setting [4]), 14.7 µM.
`COc1ccc(C(=O)Nc2cccc(C(=O)N/N=C/c3ccc(OC)cc3OC)c2)cc1`: the IC50 entry in test [1] was “inactive”. The values for the IC50 in test [2] (setting [3]) and in test [2] (setting [4]) were 28.1 µM and 38 µM, respectively.
Turning to `O=C(Nc1ccc(CN2CCCCC2)cc1)Nc1ccc(Br)cc1Cl`, the IC50 entry in test [1] is “inactive”. For the same compound, the IC50 stood at 20.4 µM in test [2] (setting [3]) and 19.8 µM in test [2] (setting [4]).
In the same order, the values of `CS(=O)(=O)c1ccc(C(=O)NCCN2C(=O)S/C(=C\c3cccnc3)C2=O)cc1[N+](=O)[O-]` are 15 µM, 17.3 µM and 12.7 µM.
For `COC(=O)c1ccc(CNC(=O)Cn2cnc3c(NCc4ccccc4)ncnc32)cc1`, the IC50 result in test [1] was “inactive”. For the same compound, the figures for the IC50 in test [2] (setting [3]) and in test [2] (setting [4]) were 29.6 µM and 15.5 µM, respectively.
For the compound `CC(C)(C)c1ccc(OCCCNCc2ccccc2)cc1`, the IC50 entry in test [1] is “inactive”. Moreover, the IC50 was 28.8 µM in test [2] (setting [3]) and 18.3 µM in test [2] (setting [4]).
Turning to `O=C1/C(=C/c2ccccc2Cl)SC(=S)N1CCCC(=O)N(CCO)c1ccccc1`, the half-inhibitory concentration (IC50) in test [1] is 17.8 µM; in test [2] (setting [3]) it was 18.9 µM; in test [2] (setting [4]) it was 16.7 µM.
As to `COc1ccc(-c2cc(-c3ccc(F)cc3)nc(N3CCN(C)CC3)n2)cc1`, the IC50 entry in test [1] was “inactive”. In addition, the figures for the half-inhibitory concentration (IC50) in test [2] (setting [3]) and in test [2] (setting [4]) were 21.6 µM and more than 100 µM, respectively.
In the same order, the values of `O=C(CCl)Nc1cccc(-c2cnc3ccccc3n2)c1` are “inactive”, more than 100 µM and 13.2 µM.
As for `COc1ccc(CN(C)C(=O)c2cc(-c3ccc(C)cc3C)nc3ccccc23)c(OC)c1OC`, the IC50 is 19.8 µM in test [1], 14.9 µM in test [2] (setting [3]) and 24.8 µM in test [2] (setting [4]).
In the case of `CN(C)CCNc1ccc2ncn3c4ccc(O)cc4c(=O)c1c23`, in test [1], the IC50 result was “inactive”. The IC50 in test [2] (setting [3]) was 54 µM; in test [2] (setting [4]), less than 0.2 µM.
Turning to `CN(C)CCNc1ccc(CO)c2oc3ccc(O)cc3c(=O)c12`, the values for the IC50 in test [1], in test [2] (setting [3]) and in test [2] (setting [4]) were 16.9 µM, 20.4 µM and 13.5 µM, respectively.
With `NC(=O)c1nsc(C(=O)N(c2ccccc2F)C(C(=O)NCc2ccc(F)cc2)c2ccc(O)cc2)c1N` (stereo unspecified), the IC50 result in test [1] was “inactive”. Also, the IC50 in test [2] (setting [3]) came out at 30.4 µM; in test [2] (setting [4]), 16.6 µM.
Consider `Cc1cc(C=C2C(=O)c3ccccc3C2=O)c(C)n1-c1ccccc1`, for which the IC50 result in test [1] was “inactive”. The IC50 in test [2] (setting [3]) was 39.6 µM; in test [2] (setting [4]), more than 100 µM.
In the same order, the values of `COC(=O)c1ccc(OCC2c3cc(OC)c(OC)cc3CCN2C(=O)c2ccco2)cc1` (stereo unspecified) are 19.4 µM, 25.2 µM and 13.6 µM.
As for `Cc1nc(N2CCN(c3ccccn3)CC2)c2c(C)c(C(=O)Nc3ccccc3F)sc2n1`, the IC50 entry in test [1] was “inactive”. Besides, the IC50 is 9.97 µM in test [2] (setting [3]) and more than 100 µM in test [2] (setting [4]).
`C[C@@H]1O[C@@H](O[C@@H]2C=C3CCC4C(CC[C@]5(C)[C@@H](c6ccc(=O)oc6)CC[C@]45O)[C@@]3(C)CC2)[C@H](O)[C@H](O)[C@H]1O` (stereo partly specified): the IC50 in test [1] is 0.45 µM; in test [2] (setting [3]) it was 0.709 µM; in test [2] (setting [4]), less than 0.2 µM.
For the compound `C[C@@H](NCCCn1cnc2c(OCc3ccccc3)ncnc21)c1cccc2ccccc12`, the concentration for half-maximal inhibition (IC50) was 16.5 µM in test [1], 17.7 µM in test [2] (setting [3]) and 15.2 µM in test [2] (setting [4]).
In the same order, the values of `O=C(Sc1cccc2cccnc12)c1ccccc1Br` are 13.4 µM, 14 µM and 12.9 µM.
For `CC[C@@H](O)C[C@H]1CCC[C@@]2(C[C@@H]3OC(=O)/C=C/[C@@](C)(O)[C@@H](O)[C@H](C)[C@@H](O)[C@H](OC4CCC(N(C)C)C(C)O4)[C@@H](O)[C@](C)(O)CCCCC/C=C/[C@@H]4CC(C)(C)O[C@@]4(O)C[C@H](O2)[C@H]3C)O1` (stereo partly specified), the values for the concentration for half-maximal inhibition (IC50) in test [1], in test [2] (setting [3]) and in test [2] (setting [4]) were 15.8 µM, 18.2 µM and 13.4 µM, respectively.
On to `COc1ccccc1CCNC(=O)C1CCN(c2nnc(C)c3c(C)n(-c4ccc(C)cc4)nc23)CC1`, for which the IC50 result in test [1] is “inactive”. For the same compound, the concentration for half-maximal inhibition (IC50) in test [2] (setting [3]) worked out at 19.4 µM; in test [2] (setting [4]), 24.1 µM.
Turning to `CCCC(=O)N1CCCC(c2cc(C(=O)Nc3ccccc3)no2)C1` (stereo unspecified), the 50% inhibitory concentration (IC50) in test [1] was 11.5 µM; in test [2] (setting [3]), 8.68 µM; in test [2] (setting [4]), 14.3 µM.
Regarding `CC(C)CC(NS(=O)(=O)OCC(Cl)(Cl)Cl)c1ccccc1` (stereo unspecified), the IC50 result in test [1] was “inactive”. For the same compound, the IC50 in test [2] (setting [3]) worked out at 47.6 µM; in test [2] (setting [4]) it was 17.5 µM.
Turning to `CCCCCCCNC(=O)C1(CC2CC(c3ccccc3)=NO2)CCNCC1` (stereo unspecified), in test [1], the IC50 result was “inactive”. In addition, the IC50 in test [2] (setting [3]) was 35.4 µM; in test [2] (setting [4]), 16.7 µM.
In the case of `O=[N+]([O-])c1cc(Cl)cc(/C=N\Nc2ccccn2)c1O`, the IC50 entry in test [1] was “inactive”. The half-inhibitory concentration (IC50) in test [2] (setting [3]) is 1.39 µM; in test [2] (setting [4]), more than 100 µM.
Take `CCN(CC)CCNc1cccc2sc3ccccc3c(=O)c12`: the IC50 entry in test [1] was “inactive”. For the same compound, the figures for the IC50 in test [2] (setting [3]) and in test [2] (setting [4]) were 18.3 µM and 25.6 µM, respectively.
On to `O/N=C(\c1ccc(Cl)cc1Cl)c1ncc(C(F)(F)F)cc1Cl`, for which the IC50 result in test [1] is “inactive”. Besides, the IC50 came to 32.4 µM in test [2] (setting [3]) and 29.9 µM in test [2] (setting [4]).
With `CCN(CCN(C)C)C(=O)C1CCN(S(=O)(=O)c2c(C)noc2/C=C/c2ccccc2F)CC1`, the IC50 entry in test [1] is “inactive”. In addition, the figures for the IC50 in test [2] (setting [3]) and in test [2] (setting [4]) were 28.2 µM and 21.4 µM, respectively.
Consider `Cc1ccsc1C(=O)OCC(=O)c1cc(C)n(CC2CCCO2)c1C` (stereo unspecified), for which the IC50 in test [1] is 14.9 µM; in test [2] (setting [3]), 11.8 µM; in test [2] (setting [4]), 18 µM.
For the compound `Cc1ccc(NCCN(C)C)c2c(=O)c3cc(O)ccc3sc12`, the half-maximal inhibitory concentration (IC50) in test [1] was 13.6 µM; in test [2] (setting [3]) it was 19.1 µM; in test [2] (setting [4]) it was 8.02 µM.
Consider `Cc1ccc(S(=O)(=O)N(C)C)cc1NC(=O)c1cncc(Br)c1`, for which, in test [1], the IC50 result is “inactive”. The concentration for half-maximal inhibition (IC50) in test [2] (setting [3]) is 47.7 µM; in test [2] (setting [4]) it was 8.59 µM.
With `O=C1N[C@@H](c2ccccc2)COC(=O)[C@@H](Cc2ccc(F)cc2)CC/C=C/C[C@H]1CC(=O)N(CCO)Cc1ccccc1`, the IC50 result in test [1] is “inactive”. The IC50 in test [2] (setting [3]) was 41 µM; in test [2] (setting [4]) it was more than 100 µM.
